Among the data in paper doi:10.1101/2022.12.17.520850v1, “A-ring-fused pyrazoles of dihydrotestosterone targeting prostate cancer cells via the downregulation of the androgen receptor” (biorxiv, 2022) are microscale thermophoresis values, retold here.

The assay addresses T1, human recombinant AR-LBD (Homo sapiens, UniProt P10275).
T1 sequence (P10275 664-920): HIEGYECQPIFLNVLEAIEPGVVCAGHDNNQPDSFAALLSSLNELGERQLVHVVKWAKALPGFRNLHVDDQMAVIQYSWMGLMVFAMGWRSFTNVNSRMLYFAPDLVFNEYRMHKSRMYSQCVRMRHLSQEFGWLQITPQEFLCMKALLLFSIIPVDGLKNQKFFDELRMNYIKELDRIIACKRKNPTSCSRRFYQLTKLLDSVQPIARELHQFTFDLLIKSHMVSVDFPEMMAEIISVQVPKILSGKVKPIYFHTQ
Briefly: microscale thermophoresis. As to conditions: […] 3d, […] His-tagged AR-LBD, […] Tris, […] NaCl, pH […] DTT, […] Tween; labelled protein. It is filed as binding.

For the molecule `Cc1c2c(nn1-c1ccc(F)cc1)C[C@@H]1CC[C@@H]3[C@H](CC[C@]4(C)[C@@H](O)CC[C@@H]34)[C@@]1(C)C2` [3d], the microscale thermophoresis entry is reported as “confirmed thus binding of 3d into the AR-LBD”.
